# Source: publication PMC9967956, “Efficacy of Trichoderma longibrachiatum Trichogin GA IV Peptaibol analogs against the Black Rot Pathogen Xanthomonas campestris pv. campestris and other Phytopathogenic Bacteria” (Microorganisms, 2023)
# Where a SMILES comes first, the peptide text is derived from it. [ ]: non-standard residue; d: D form. The star is where a group is joined. Azidoacetyl = [N-]=[N+]=NCC(=O)*; Leu(ol) = CC(C)C[C@H](N)CO; Octanoyl = CCCCCCCC(=O)*; nOct = not defined here; Aib = CC(C)(N)C(=O)O
# Legend:
# [1] = tested on: Xanthomonas campestris pv. campestris strain RC1; assay: Growth inhibition assay against Xcc (OD600); conditions: LB, 27 °C, 72 h, OD 600 nm, three replicates, two independent experiments
# [2] = tested on: Xanthomonas campestris pv. campestris; assay: MIC and MBC determinations against Xcc; type: cell-based; design: key to Bacteriostatic (MIC) / bactericidal (MBC) activity at 0.5 µM / Bacteriostatic (MIC) / bactericidal (MBC) activity at 1 µM / Bacteriostatic (MIC) / bactericidal (MBC) activity at 3 µM / Bacteriostatic (MIC) / bactericidal (MBC) activity at 2 µM: Dashes (-) indicate the absence of bacteriostatic or bactericidal activity; Minimal Inhibitory Concentration (MIC); Minimal Bactericidal Concentration (MBC); MIC and MBC: Minimal Inhibitory Concentration (MIC) and Minimal Bactericidal Concentration (MBC); conditions: for MIC: lowest concentration that completely inhibited visible growth, 72 h, tested 3, 2, 1 and 0.5 µM; for Bacteriostatic (MIC) / bactericidal (MBC) activity at 0.5 µM: peptide 0.5 µM; for Bacteriostatic (MIC) / bactericidal (MBC) activity at 0.5 µM / Bacteriostatic (MIC) / bactericidal (MBC) activity at 1 µM / Bacteriostatic (MIC) / bactericidal (MBC) activity at 2 µM / Bacteriostatic (MIC) / bactericidal (MBC) activity at 3 µM: 72 h growth inhibition, then plating on LBA 24 h; for Bacteriostatic (MIC) / bactericidal (MBC) activity at 1 µM: peptide 1 µM; for Bacteriostatic (MIC) / bactericidal (MBC) activity at 2 µM: peptide 2 µM; for Bacteriostatic (MIC) / bactericidal (MBC) activity at 3 µM: peptide 3 µM
# Protocol: Peptaibols were tested at decreasing concentrations (3, 2, 1 and 0.5 µM). Minimal Bactericidal Concentration (MBC) was determined at the end of the incubation period (72 h) by plating, onto LBA plates, 5 µL samples that were collected from each well with no visible growth.
# P. oryzae = conditions: cited from earlier work
Compound,Inhibition of Xcc growth in vitro ([1]; peptide 15 µM),Inhibition of Xcc growth in vitro ([1]; peptide 3 µM),MIC [2],Bacteriostatic (MIC) / bactericidal (MBC) activity at 0.5 µM [2],Bacteriostatic (MIC) / bactericidal (MBC) activity at 1 µM [2],other results
nOct-Aib-Gly-Leu-Aib-Gly-Lys-Leu-Aib-Gly-Ile-Leu-NH2 [Peptide 22r],complete inhibition,,,,,
nOct-Aib-Gly-Leu-Aib-Lys-Lys-Leu-Aib-Gly-Ile-Lol [Peptide 4],,did not reduce,,,,
CCCCCCCC(=O)NC(C)(C)C(=O)N[C@@H](CCCCN)C(=O)N[C@@H](CCCCN)C(=O)N[C@@H](CC(C)C)C(=O)NC(C)(C)C(=O)NCC(=O)N[C@H](C(=O)N[C@H](CO)CC(C)C)[C@@H](C)CC [Peptide 4c] (Octanoyl-[Aib]KKL[Aib]GI[Leu(ol)]),completely inhibited,confirmed the Xcc growth inhibition detected at 15 µM,3 µM,-,-,Bacteriostatic (MIC) / bactericidal (MBC) activity at 2 µM [2]: -; Bacteriostatic (MIC) / bactericidal (MBC) activity at 3 µM [2]: MIC
nOct-Toac-Gly-Leu-Aib-Gly-Gly-Leu-Aib-Arg-Ile-Lol [Peptide 11],,did not reduce,,,,
nOct-Aib-Gly-Leu-Aib-Gly-Gly-Leu-Api-Gly-Ile-Lol [Peptide 8],,did not reduce,,,,
nOct-Aib-Lys-Leu-Aib-Gly-Lys-Leu-Aib-Gly-Ile-Lol [Peptide 7],completely inhibit,partial growth inhibition effect,,,,
CCCCCCCC(=O)NC(C)(C)C(=O)N[C@@H](CCCCN)C(=O)N[C@@H](CC(C)C)C(=O)NC(C)(C)C(=O)N[C@@H](CCCCN)C(=O)NCC(=O)N[C@@H](CC(C)C)C(=O)NC(C)(C)C(=O)N[C@@H](CCCCN)C(=O)N[C@H](C(=O)N[C@@H](CC(C)C)C(N)=O)[C@@H](C)CC [Peptide 5r] (Octanoyl-[Aib]KL[Aib]KGL[Aib]KIL-NH2),complete inhibition,confirmed the Xcc growth inhibition detected at 15 µM,2 µM,-,-,
nOct-Aib-Lys-Lys-Leu-Aib-Gly-Ile-Leu-NH2 [Peptide 4c2],no inhibitory effect,,,,,
CCCCCCCC(=O)NC(C)(C)C(=O)NCC(=O)N[C@@H](CC(C)C)C(=O)NC(C)(C)C(=O)NCC(=O)N[C@@H](CCCCN)C(=O)N[C@@H](CC(C)C)C(=O)NC(C)(C)C(=O)NCC(=O)N[C@H](C(=O)N[C@H](CO)CC(C)C)[C@@H](C)CC [Peptide 22],,complete inhibition,2 µM,-,-,Bacteriostatic (MIC) / bactericidal (MBC) activity at 3 µM [2]: -
nOct-Aib-Gly-Leu-Aib-Gly-Gly-Leu-Aib-Lys-Ile-Lol [Peptide 25],,did not reduce,,,,
CCCCCCCC(=O)NC(C)(C)C(=O)N[C@@H](CCCCN)C(=O)N[C@@H](CC(C)C)C(=O)NC(C)(C)C(=O)N[C@@H](CCCCN)C(=O)N[C@@H](CCCCN)C(=O)N[C@@H](CC(C)C)C(=O)NC(C)(C)C(=O)NCC(=O)N[C@H](C(=O)N[C@H](CO)CC(C)C)[C@@H](C)CC [Peptide 24] (Octanoyl-[Aib]KL[Aib]KKL[Aib]GI[Leu(ol)]),,complete inhibition,1 µM,-,MIC,
nOct-Aib-Gly-Leu-Aib-Gly-Gly-Leu-Api-Ile-Lol [Peptide 8ApiC],,did not reduce,,,,
CCCCCCCC(=O)NC(C)(C)C(=O)N[C@@H](CCCCN)C(=O)N[C@@H](CC(C)C)C(=O)NC(C)(C)C(=O)NCC(=O)NCC(=O)N[C@@H](CC(C)C)C(=O)NC(C)(C)C(=O)NCC(=O)N[C@H](C(=O)N[C@H](CO)CC(C)C)[C@@H](C)CC [Peptide 2] (Octanoyl-[Aib]KL[Aib]GGL[Aib]GI[Leu(ol)]),completely inhibit,complete inhibition,3 µM,-,-,Bacteriostatic (MIC) / bactericidal (MBC) activity at 2 µM [2]: -; Bacteriostatic (MIC) / bactericidal (MBC) activity at 3 µM [2]: MIC
nOct-Aib-Gly-Leu-Aib-Lys-Aib-Leu-Aib-Gly-Ile-Lol [Peptide 6],completely inhibit,partial growth inhibition effect,,,,Inhibition of P. oryzae (P. oryzae): strain-dependent inhibition
"nOct-Aib-Gly-Leu-Aib-Gly-Gly-Leu-Aib-Gly-Ile-Lol [Trichogin GA IV, trichogin GA IV]",inactive,,,,,
nOct-Aib-Lys-Leu-Aib-Gly-Gly-Leu-Aib-Gly-Ile-Leu-NH2 [Peptide 2r],complete inhibition,,,,,
nOct-Aib-Gly-Leu-Aib-Lys-Lys-Leu-Leu-NH2 (nOct-[Aib]GL[Aib]KKLL-NH2; reading uncertain) [Peptide 4c1],weakly effective,,,,,
nOct-Aib-Gly-Leu-Aib-Lys-Gly-Leu-Aib-Gly-Ile-Lol [Peptide 3],inactive,,neither bacteriostatic nor bactericidal activity,-,-,Bacteriostatic (MIC) / bactericidal (MBC) activity at 2 µM [2]: -; Bacteriostatic (MIC) / bactericidal (MBC) activity at 3 µM [2]: -
nOct-Aib-Lys-Leu-Aib-Lys-Gly-Leu-Aib-Lys-Ile-Lol [Peptide 5],,did not reduce,,,,
CC[C@H](C)[C@H](NC(=O)[C@H](CCCCN)NC(=O)C(C)(C)NC(=O)[C@H](CC(C)C)NC(=O)[C@H](CCCCN)NC(=O)[C@H](CCCCN)NC(=O)C(C)(C)NC(=O)[C@H](CC(C)C)NC(=O)[C@H](CCCCN)NC(=O)C(C)(C)NC(=O)CN=[N+]=[N-])C(=O)N[C@H](CO)CC(C)C [Peptide 9] (Azidoacetyl-[Aib]KL[Aib]KKL[Aib]KI[Leu(ol)]),,complete inhibition,1 µM,-,MIC,
nOct-Aib-Lys-Leu-Aib-Lys-Gly-Leu-Aib-Gly-Ile-Lol [Peptide 1],completely inhibit,complete inhibition,,,,
CCCCCCCC(=O)NC(C)(C)C(=O)N[C@@H](CCCCN)C(=O)N[C@@H](CC(C)C)C(=O)NC(C)(C)C(=O)N[C@@H](CCCCN)C(=O)N[C@@H](CCCCN)C(=O)N[C@@H](CC(C)C)C(=O)NC(C)(C)C(=O)N[C@@H](CCCCN)C(=O)N[C@H](C(=O)N[C@@H](CC(C)C)C(=O)NC(C)(C)C(=O)N[C@@H](CCCCN)C(=O)N[C@@H](CC(C)C)C(=O)NC(C)(C)C(=O)N[C@@H](CCCCN)C(=O)N[C@@H](CCCCN)C(=O)N[C@@H](CC(C)C)C(=O)NC(C)(C)C(=O)N[C@@H](CCCCN)C(=O)N[C@H](C(=O)N[C@H](CO)CC(C)C)[C@@H](C)CC)[C@@H](C)CC [Peptide 10] (Octanoyl-[Aib]KL[Aib]KKL[Aib]KIL[Aib]KL[Aib]KKL[Aib]KI[Leu(ol)]),,complete inhibition,2 µM,-,-,
CCCCCCCC(=O)NC(C)(C)C(=O)N[C@@H](CCCCN)C(=O)N[C@@H](CC(C)C)C(=O)NC(C)(C)C(=O)N[C@@H](CCCCN)C(=O)N[C@@H](CCCCN)C(=O)N[C@@H](CC(C)C)C(=O)NC(C)(C)C(=O)NCC(=O)N[C@H](C(=O)N[C@@H](CC(C)C)C(N)=O)[C@@H](C)CC [Peptide 24r] (Octanoyl-[Aib]KL[Aib]KKL[Aib]GIL-NH2),complete inhibition,confirmed the Xcc growth inhibition detected at 15 µM,1 µM,-,MIC,
nOct-Aib-Gly-Leu-Aib-Lys-Aib-Leu-Aib-Gly-Ile-Leu-NH2 [Peptide 6r],weakly effective,,,,,
CCCCCCCC(=O)NC(C)(C)C(=O)N[C@@H](CCCCN)C(=O)N[C@@H](CC(C)C)C(=O)NC(C)(C)C(=O)N[C@@H](CCCCN)C(=O)N[C@@H](CCCCN)C(=O)N[C@@H](CC(C)C)C(=O)NC(C)(C)C(=O)N[C@@H](CCCCN)C(=O)N[C@H](C(=O)N[C@H](CO)CC(C)C)[C@@H](C)CC [Peptide 23] (Octanoyl-[Aib]KL[Aib]KKL[Aib]KI[Leu(ol)]),,complete inhibition,1 µM,-,,
